Test results: patent US20240285670A1, “THERAPEUTIC TREATMENT OF TUMORS BY BLOCKING THE HEME SYNTHESIS-EXPORT AXIS” (Università degli Studi di Torino, priority 2021, published 2024)

Tested on: C80 cells
Assay: Activity of mitochondrial ETC complexes I-IV in C80 cells
Format: cell-based, human
Conditions: FLVCR1a-silenced vs scramble shRNA C80 cells
From the text: (A, C, E) Activities of the mitochondrial electron transport chain complexes I-IV. FLVCR1a-silenced Caco2 (A), SKCO1 (C) or C80 cells (E) are compared to cells expressing a scramble shRNA. Results were expressed as nmol NAD^+/min/mg mitochondrial protein for complex I, nmol reduced cytochrome c/min/mg mitochondrial protein for complexes II-III, nmol oxidized cytochrome c/min/mg mitochondrial protein for complex IV. Data represent mean±SEM, n=3. For statistical analyses, an unpaired Student's t-test was used; *=p<0.05, **=p<0.01. (B, D, F) Mitochondrial ATP levels measured by a bioluminescent assay kit. FLVCR1a-silenced Caco2 (B), SKCO1 (D) or C80 cells (F) are compared to cells expressing a scramble shRNA. Results are expressed as nmol/mg mitochondrial proteins. Data represent mean±SEM, n=3. […] Results were expressed as nmol NAD^+/min/mg mitochondrial protein for complex I, nmol reduced cytochrome c/min/mg mitochondrial protein for complexes II-III, nmol oxidized cytochrome c/min/mg mitochondrial protein for complex IV. […] (H) Mitochondrial ATP levels measured by a bioluminescent assay kit in Caco2 cells overexpressing FLVCR1a (indicated as FLVCR1a+) compared to cells stably transduced with an empty vector. Results are expressed as nmol/mg mitochondrial proteins. […]
The activity of mitochondria respiration complexes was measured according to (Wibom et al., 2002).

With “FLVCR1a shRNA: shRNA specifically down-regulating FLVCR1a without targeting FLVCR1b; pLKO.1 lentiviral clone TRCN0000059599, antisense SEQ ID No.: 2 (antisense TTGCTAATGATGCTGTACTGG; sense CCAGTACAGCATCATTAGCAA)” the ETC complexes activity was “increased ETC complexes activity”.
